Measured values reported in patent publication US20210393807A1, “PHOTOACOUSTIC VOLTAGE-SENSITIVE DYES FOR IN VIVO IMAGING” (The Johns Hopkins University, priority 2016, published 2021).
Several values for one entry are separate records, joined by “and”; a condition that tells them apart may be missing. Equal entries are not always repeated.

What was measured:
rat brain [1] = experiment: PA recording of neural activity index during NMDA infusion; type: in vivo, Sprague Dawley rats
Excerpt: (§1) 3.1.1 Animal preparation. For the in vivo experiments, 8-9-week-old male Sprague Dawley rats weighing 275-390 g were used (Charles Rivers Laboratory, Inc., MA, United States). The use of animals for the proposed experimental protocol was approved by the Institutional Research Board Committee of Johns Hopkins Medical Institute (RA16M225). The hair was shaved from the scalp of each rat for improved optical/acoustic coupling for transcranial PA recording. The head of the anesthetized rat was fixed to a stable position using a standard stereotaxic device. This fixation procedure was required to prevent any unpredictable movement during PA recording of neural activities.
3.1.3 In vivo experimental protocol. The in vivo protocol was designed to have two different phases: baseline and NMDA infusion (FIG. 22B). PA data acquisition was continuously performed for 40 min to be correlated with the glutamate concentration change measured by microdialysis with 20-min intervals. The baseline phase was designed to confirm its stable neural activity before the NMDA infusion. […]

rat brain [2] = experiment: Microdialysis of extracellular glutamate during NMDA infusion; type: in vivo, Sprague Dawley rats; settings: NMDA infusion phase, 0.3-mM NMDA via microdialysis probe; baseline phase 0.557 μM
Excerpt: as §1
3.1.2 Microdialysis setup. The microdialysis probe consists of a shaft with a semipermeable hollow membrane tip, which is connected to inlet and outlet tubing. The extracellular fluid samples were continuously acquired before and after the infusion of 0.3-mM NMDA through the inlet of the microdialysis probe (FIG. 22A). Each acquisition of extracellular fluid sample took 20 min with 2 μL/min flow rate. From the samples, the change of glutamate concentration was measured.
3.1.3 In vivo experimental protocol. […] PA data acquisition was continuously performed for 40 min to be correlated with the glutamate concentration change measured by microdialysis with 20-min intervals. […]

Structure (SMILES): CN[C@H](CC(=O)O)C(=O)O [NMDA]
- increase of neural activity index estimated by PA recording (rat brain [1]; 30 min of NMDA infusion, after VSD and Lexiscan administration): up to 3.27 times
- time at which the increase of index is saturated (rat brain [1]; from the start of NMDA infusion): 10 to 15 min
- extracellular glutamate concentration (rat brain [2]): 0.000643 mM and 0.000648 mM
